Experimental findings from patent US11674967B2, “Method of identifying potential inhibitors of APO TNFα trimers” (UCB BIOPHARMA SRL, priority 2015, dated 2023) are described below.

The kon is the rate constant with which the complex forms. The low end stands for slow association, the high end for fast association.

Assay [1] concerns the target T1, TNFα (Homo sapiens, UniProt P01375). Put plainly: Surface plasmon resonance kinetics of compound binding to immobilised TNFα. How it is done:
Surface plasmon resonance was used to measure the association rate, the dissociation rate and the affinity of the compounds of formulae (3) and (15) for TNFα (FIGS. 12A and B). For the purpose of this study a Biacore T100/T200 was used.
TNFα was immobilised at pH5 to a level of 5-8 KRU onto a CMS sensor in HBS-P buffer (10 mM HEPES pH 7.4, 0.15 M NaCl, 0.005% Surfactant P20, BIAcore, GE Healthcare). The TNFα was then equilibrated in HBS-P with 5% DMSO for at least 5 hours. The samples were diluted from 10 mM stocks into DMSO matched buffer and left to solubilise for at least 5 hours. The flow rate was […].
This assay was performed by adding 4 or 5 concentrations of compound starting from a highest concentration of 25 μM for compound of formula (3) and 1 μM for compound of formula (15) and then serially diluting this sample. Background subtraction binding curves were analysed using the BIAevaluation software following standard procedures. Binding, affinity and kinetic parameters were determined using Biacore software. The kinetic data were fitted using the levenberg marquardt algorithm.
Target sequence in this assay (P01375 77-233 limits assumed): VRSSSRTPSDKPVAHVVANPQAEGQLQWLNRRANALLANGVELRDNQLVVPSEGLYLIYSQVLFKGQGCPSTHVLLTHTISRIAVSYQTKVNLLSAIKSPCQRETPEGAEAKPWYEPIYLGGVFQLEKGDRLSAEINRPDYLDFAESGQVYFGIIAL
For orientation: Surface plasmon resonance follows binding to a sensor surface in real time, without labels.

Another assay has as its target T2, human TNFα trimer (Homo sapiens, UniProt P01375).
T2 construct: His6Smt-tag (N, cleaved yes); made in house; host or cells: E. coli (vector pEMB54)
The experiment in a line: RMSD of crystal structure of compound-bound TNFα trimer to Reference Structure Compound 34. As to conditions: Cα atoms of β-sheet residues, all three subunits, PyMOL. How it is done:
Cells were pre-cultured at 37° C. in rich media, induced with the addition of 0.1% arabinose and allowed to express overnight at 25° C. in vector pEMB54. This vector introduces a cleavable N-terminal His6Smt-tag. The cells were lysed and purified by Ni-NTA chelate chromatography. The fusion protein was eluted with buffer containing imidazole and cleaved by the addition of protease. The final cleaved TNFα protein was purified by a subtractive Ni chelate chromatography step to remove the fusion tag and further purified by size exclusion chromatography to remove the remaining impurities. The final TNFα product was typically concentrated to 20.0 mg/ml and flash frozen in liquid nitrogen.
Purified human TNF[…] (20.0 mg/ml, VC 2043) was diluted to 4-7 mg/ml in 10 mM HEPES pH 7.5, 150 mM NaCl buffer followed by overnight incubation at 4° C. with 0.3-0.5 mM compound (1-2 molar excess). The TNF[…] compound complexes were crystallized by sitting drop vapor diffusion by mixing 0.5 μl of complex with 0.5 μl of 21.44% PEG 3350, 100 mM Tris, pH 9.0 (UCB1474433); or 22.0% PEG 3350, 100 mM glycine, 100 mM Tris, pH 8.5 (UCB1480595); or 25.6% PEG 3350, 100 mM Tris, pH 8.3, 3% xylitol (UCB5143079) or other formulation with varying precipitant concentration or additives over 100 μl of the same crystallization solution. Other formulations for other compounds include a range of PEG 3350 of 8-28%. Other PEG-like additives include PEG 1000 (8-18%) or PEG 2000 (10-13%). Other additives include MPD (5-13%) or 200 mM NaCl. Other buffers include 100 mM Hepes (pH 7-8), 100 mM Tris or bis-Tris (pH 6.7-9.0). Other non-PEG 3350 crystallization solutions consist of PEG 2000 (14-19%), 100 mM Hepes, pH 8, 25 mM arginine; or 17% PEG 10000, 200 mM ammonium acetate, 100 mM bis-Tris, pH 5.5; or 30% PEG 2000 MME, 100 mM sodium acetate, 100 mM Mes, pH 6.5.
Crystals were briefly soaked in ethylene glycol and/or vitrified directly in liquid nitrogen for data collection.
X-ray diffraction data were collected from a synchrotron source at a wavelength, most frequently, of 0.976484 Å and recorded on CCD detector. […] The structure of the human TNF[…] (VC 2043) complexed with compound was solved by molecular replacement using Phaser with input model of 1TNF. […] Iterative manual model building using Coot (Emsley and Cowtan, 2004) and Refmac (Murshudov et al., 1997) continued until R and Rfree converged. […] The resolution of the structures was most frequently around 2.15 Å.
Root mean squared deviation (RMSD) calculations were carried out to ascertain the distance of each of the crystal structures of distorted TNFα trimer to a reference structure.
RMSD calculations were done using the program PyMOL (www.pymol.org). In this example version 1.7. was used. The cmd.rms PyMOL command was used with defined pairs of atoms. The atoms used were the backbone Ca's of certain residues within the β-strands of TNFα. The residue numbers used are shown below:
These residue numbers are those within the published structure of TNFα with PDB code 1A8M and within the distorted TNFα trimer structures of this invention. The residue numbers are also according to the sequence of SEQ ID NO:36. The residues in each of the three chains with the TNFα structures, (labelled A, B, and C according to our instructions) were used.
The command cmd.rms was used with the following arguments:
rms=cmd.rms(“(moving)”, “(target)”, matchmaker=4, quiet=0, cycles=0)
where “(moving)” is the selection of atoms in a given TNFα structure and “(target)” is the selection of equivalent atoms within the reference structure.
The RMSD was calculated for each structure against all others. The “representative structure” or “Reference Structure” was chosen to be the one with the lowest sum RMSD to all others—the structure “Compound 34” or “Compound34.pdb”.
Reference Structure (Compound 34) and Query Structure (Compound 64) were overlaid (see FIG. 17 with Reference Structure emboldened) by: • 1. […]

The test system of the next assay is TNFR2. Put plainly: Membrane TNF - TNFR2 signalling (NS0-mTNF cells with expanded primary human T cells). The assay is classed as cell-based. The note with it: compound bound to membrane TNFα on NS0 cells. Here is the method:
A murine B cell line (NS0-mTNF) stably expressing non-cleavable human membrane TNF due to a mutation at the TACE cleavage site was used to trigger TNFR2 signalling in PHA-L and IL-2 expanded primary human T cells. […] TNFR1 was also present on these cells but was blocked using a UCB mouse anti-human-TNFR1 antibody 5R16.
NS0-mTNF cells were cultured with 10 μM NCEs for 1 hour to allow binding of Compounds to membrane TNF. T cells were then mixed with the NS0-mTNF cells and following a brief spin to allow cell-cell contact, cells were incubated for 5 min and then lysed in lysis buffer. […] First TRAF-2 recruitment to the TNFR2 receptor was measured in Co-immunoprecipitation experiments as a measure of membrane proximal signalling. After lysis of cells TNFR2 was isolated from the lysate using polyclonal goat anti-human TNFR2 antibodies followed by protein G sepharose bead purification. TNFR2 associated TRAF-2 was then measured in immunoblots after running the purified TNFR2 preparation on a SDS-PAGE. In addition, the whole cell lysate was also sampled for the presence of pNFκB using SDS-PAGE and pNFκB specific immunoblots.
• PBMC from 3 three different donors were cultured in 6 well plates with 10×10^6 cells per well in 5 ml of RPMI1640 supplemented with 10% FCS, 1% human serum, HEPES GlutaMAX, 25 U/ml hIL-2 (Roche) and 2 μg/ml PHA-L (Sigma) to grow out T cells • after 3 days cells were resuspended and cultured in 75 cm^2 flasks with the same media as above, but lacking the PHA-L • growth of culture was monitored and media was changed every 3 days.
This is a 2× solution • prepare 500 μl of 10×10^6 NS0-wt cells • After 1 h add 500 μl human T cells (50×10^6 cells/test) in human media at 37° C. T cells were preincubated for 15 min @37° C. with 50 μg/ml 5R16 anti-TNFR1 Fab-PEG to block signalling via TNFR1 prior adding to the NS0 cells. […]

Assay [2] has as its target T1, TNFα. The experiment in a line: Meso Scale Discovery (MSD) assay of TNFα binding to plate-coated TNFR-ECD. Set-up: purchased R&D Systems. As to conditions: single point, 100 μM, 5% DMSO. How it is done:
384 well uncoated plates (standard binding) Meso Scale Discovery plates (MSD) were coated overnight with the extracellular domain of TNFR (TNFR-ECD) (10 μl, 1 ug/mL in PBS). To ensure even distribution plates were centrifuged at 1000 rpm for 2 minutes. The plates were then sealed and stored at +4° C. overnight.
The wells of the plates were then washed three times in 50 μl phosphate buffered saline pH 6.5 (PB) with 0.05% Tween 20 (wash buffer), and then blocked with 50 μl 2% BSA. The plates were then incubated at room temperature on a shaker (600 rpm) for 2 hours. After this incubation plates were washed (3×50 μl wash buffer per well). During the blocking incubation, compounds of formulae (3) and (15) were pre-incubated with TNF (R&D Systems) prior to addition to the pre-blocked and washed MSD plates. For a single point assay as shown in FIG. 2A the compounds were assayed at a final concentration of 100 μM (5% final v/v DMSO). […]
The plates were then washed (3×50 μl wash buffer per well), followed by the addition of 50 μl MSD Read buffer T plus surfactant (diluted 1 in 2 in H2O) and read on a SECTOR Imager 6000.
For single point assays percentage inhibition was calculated using a control sample without compound.
For EC50s determination results were calculated by standard means using a 4 parameter logistic model (sigmoidal dose response model).
Target sequence in this assay (P01375 77-233 limits assumed): as above
Target sequence in this assay (P19438 30-211 partner limits assumed): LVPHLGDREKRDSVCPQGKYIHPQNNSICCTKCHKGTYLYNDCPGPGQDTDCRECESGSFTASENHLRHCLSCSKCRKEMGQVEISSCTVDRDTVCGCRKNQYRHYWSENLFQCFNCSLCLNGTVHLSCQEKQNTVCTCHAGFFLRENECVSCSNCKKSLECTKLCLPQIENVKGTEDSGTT

T2 sequence (P01375 with tags, fused parts or gaps): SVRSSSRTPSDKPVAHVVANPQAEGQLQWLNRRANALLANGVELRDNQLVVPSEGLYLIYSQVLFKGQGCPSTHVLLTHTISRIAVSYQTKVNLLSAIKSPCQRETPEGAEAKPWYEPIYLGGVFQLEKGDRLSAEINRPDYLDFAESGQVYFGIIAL

With `O=C1CCCN1c1cccc(OCc2nc3ccc(-c4ccc(=O)[nH]c4)cc3n2Cc2ccccc2OC(F)F)c1` [Compound 39], the kon at TNFα [1] was 5470 M⁻¹ s⁻¹. In addition, the “RMSD (Å) with Compound 34” value at human TNFα trimer stood at 0.22 Å. In the assay with TNFR2, the “TNFR2 specific membrane proximal (TRAF-2 recruitment to TNFR2) and downstream (pNFκB) signalling” value is “does not impair”. Take `Cc1nc2ccc(-c3ccc(N4CCNCC4)nc3)cn2c1Cc1ccccc1OC(F)F` [Compound 43]: the “RMSD (Å) with Compound 34” value at human TNFα trimer came to 0.36 Å. Further, the “TNFR2 specific membrane proximal (TRAF-2 recruitment to TNFR2) and downstream (pNFκB) signalling” value in the assay on TNFR2 was “does not impair”. As to `Cc1nc2ccc(-c3cnc(N4CCNC(=O)CC4)nc3)cn2c1C(C)c1ccccc1OC(F)F` (stereo not shown) [Compound 57], the “RMSD (Å) with Compound 34” value at human TNFα trimer amounted to 0.30 Å. On the same count and under the same terms, under `CS(=O)(=O)c1ccc(-c2ccc3nc4n(c3c2)C(c2ccccc2OC(F)F)CC4)cc1` (stereo not shown) [Compound 61] stands 0.28 Å; under `CS(=O)(=O)c1ccc(Cc2nc3ccc(-c4ccc(S(C)(=O)=O)cc4)cc3n2Cc2ccccc2OC(F)F)cc1` [Compound 62], 0.16 Å.

Turning to `Cc1nc2cc(F)c(-c3cnc(N4CC(O)(C(F)(F)F)C4)nc3)cn2c1[C@@H](O)c1ccccc1OC(F)F` [Compound 64, 1-[5-[3-[(S)-[2-(difluoromethoxy)phenyl]-hydroxy-methyl]-7-fluoro-2-methyl-imidazo[1,2-a]pyridin-6-yl]pyrimidin-2-yl]-3-(trifluoromethyl)azetidin-3-ol], at human TNFα trimer, the “RMSD (Å) with Compound 34” value is listed as 0.22 Å.

As for `Cc1cc2occ(CN(C)CCN(C)Cc3cn(-c4cccc(C(F)(F)F)c4)c4ccccc34)c(=O)c2cc1C` [SPD-304], on TNFα [2], the “% inhibition of TNFα binding to the TNF receptor” value is “+80%”.
